The values below come from PMC3290907 (Evidence-based Complementary and Alternative Medicine : eCAM, 2012).

The target of this assay is T1, PDE4 (homogenate of guinea pig lungs or hearts).
T1 construct: gene PDE4A; native enzyme activity in lung or heart homogenate; subtype not resolved; other PDE families may be present
Briefly: [3H]-cAMP hydrolysis, two-step radioassay, Lineweaver-Burk. Particulars: cAMP substrate; 3 mM MgCl2; pH 7.4; 37°C; competitive; lung or heart homogenate. It is filed as biochemical, Cavia porcellus.

`COc1ccc([C@@H]2CC(=O)c3c(O)cc(O)cc3O2)cc1O` [hesperetin, 5,7,3′-trihydroxy-4′-methoxyflavanone] yielded a Ki of 45.6 ± 2.3 µM.
